Laboratory results taken from the NIST ThermoML archive (doi:10.1021/je700428f).

Assay: xn = mol fraction of the nth substance listed
Conditions: 101 kPa, Liquid; for viscosity: Capillary tube (Ostwald / Ubbelohde) method

COC(C)(C)C [2-methoxy-2-methylpropane] + CCCCCCCCCC
Conditions | mass density [kg/m3] | viscosity [mPa·s]
308.15 K, x1 = 0.5005 | 719.62 | –
308.15 K, x1 = 0.6066 | 720.2 | –
308.15 K, x1 = 0.6866 | 720.81 | –
308.15 K, x1 = 0.7973 | 721.85 | –
308.15 K, x1 = 0.8999 | 723.26 | –
308.15 K, x1 = 1 | 724.82 | –
313.15 K, x1 = 0.1016 | – | 0.654
313.15 K, x1 = 0.1019 | 714.7 | –
313.15 K, x1 = 0.2002 | – | 0.614
313.15 K, x1 = 0.2041 | 714.74 | –
313.15 K, x1 = 0.3003 | – | 0.572
313.15 K, x1 = 0.3077 | 714.88 | –
313.15 K, x1 = 0.3999 | 715.03 | –
313.15 K, x1 = 0.4013 | – | 0.531
313.15 K, x1 = 0.4992 | – | 0.491
313.15 K, x1 = 0.5005 | 715.3 | –
313.15 K, x1 = 0.6005 | – | 0.449
313.15 K, x1 = 0.6066 | 715.7 | –
313.15 K, x1 = 0.6866 | 716.18 | –
313.15 K, x1 = 0.7 | – | 0.404
313.15 K, x1 = 0.7973 | 717 | –
313.15 K, x1 = 0.8005 | – | 0.362
313.15 K, x1 = 0.8999 | 718.16 | –
313.15 K, x1 = 1 | 719.42 | –
318.15 K, x1 = 0.1016 | – | 0.614
318.15 K, x1 = 0.1019 | 710.81 | –
318.15 K, x1 = 0.2002 | – | 0.579
318.15 K, x1 = 0.2041 | 710.74 | –
318.15 K, x1 = 0.3003 | – | 0.54
318.15 K, x1 = 0.3077 | 710.78 | –
318.15 K, x1 = 0.3999 | 710.82 | –
318.15 K, x1 = 0.4013 | – | 0.503
318.15 K, x1 = 0.4992 | – | 0.462
318.15 K, x1 = 0.5005 | 710.97 | –
318.15 K, x1 = 0.6005 | – | 0.426
318.15 K, x1 = 0.6066 | 711.2 | –
318.15 K, x1 = 0.6866 | 711.53 | –
318.15 K, x1 = 0.7 | – | 0.383
318.15 K, x1 = 0.7973 | 712.1 | –
318.15 K, x1 = 0.8999 | 713.01 | –
318.15 K, x1 = 1 | 713.96 | –
323.15 K, x1 = 0.1016 | – | 0.577
323.15 K, x1 = 0.1019 | 706.89 | –
323.15 K, x1 = 0.2002 | – | 0.546
323.15 K, x1 = 0.2041 | 706.73 | –
323.15 K, x1 = 0.3003 | – | 0.51
323.15 K, x1 = 0.3077 | 706.65 | –
323.15 K, x1 = 0.3999 | 706.59 | –
323.15 K, x1 = 0.4013 | – | 0.476
323.15 K, x1 = 0.4992 | – | 0.441
323.15 K, x1 = 0.5005 | 706.6 | –
323.15 K, x1 = 0.6005 | – | 0.406
323.15 K, x1 = 0.6066 | 706.67 | –
323.15 K, x1 = 0.6866 | 706.84 | –
323.15 K, x1 = 0.7 | – | 0.365
323.15 K, x1 = 0.7973 | 707.18 | –
323.15 K, x1 = 0.8999 | 707.81 | –
328.15 K, x1 = 0.1016 | – | 0.546
328.15 K, x1 = 0.1019 | 702.96 | –
328.15 K, x1 = 0.2002 | – | 0.517
328.15 K, x1 = 0.2041 | 702.7 | –
328.15 K, x1 = 0.3003 | – | 0.483
328.15 K, x1 = 0.3077 | 702.51 | –
328.15 K, x1 = 0.3999 | 702.33 | –
328.15 K, x1 = 0.4013 | – | 0.451
328.15 K, x1 = 0.4992 | – | 0.418
328.15 K, x1 = 0.5005 | 702.22 | –
328.15 K, x1 = 0.6005 | – | 0.386
328.15 K, x1 = 0.6066 | 702.11 | –
328.15 K, x1 = 0.6866 | 702.11 | –
328.15 K, x1 = 0.7 | – | 0.35
328.15 K, x1 = 0.7973 | 702.19 | –
328.15 K, x1 = 0.8999 | 702.55 | –
333.15 K, x1 = 0.1016 | – | 0.514
333.15 K, x1 = 0.1019 | 699 | –
333.15 K, x1 = 0.2002 | – | 0.489
333.15 K, x1 = 0.2041 | 698.64 | –
333.15 K, x1 = 0.3003 | – | 0.459
333.15 K, x1 = 0.3077 | 698.34 | –
333.15 K, x1 = 0.3999 | 698.05 | –
333.15 K, x1 = 0.4013 | – | 0.432
333.15 K, x1 = 0.4992 | – | 0.399
333.15 K, x1 = 0.5005 | 697.78 | –
333.15 K, x1 = 0.6005 | – | 0.371
333.15 K, x1 = 0.6066 | 697.5 | –
333.15 K, x1 = 0.6866 | 697.32 | –
333.15 K, x1 = 0.7973 | 697.15 | –
338.15 K, x1 = 0.1016 | – | 0.489
338.15 K, x1 = 0.1019 | 695.02 | –
338.15 K, x1 = 0.2002 | – | 0.466
338.15 K, x1 = 0.2041 | 694.56 | –
338.15 K, x1 = 0.3003 | – | 0.438
338.15 K, x1 = 0.3077 | 694.14 | –
338.15 K, x1 = 0.3999 | 693.73 | –
338.15 K, x1 = 0.4013 | – | 0.413
338.15 K, x1 = 0.4992 | – | 0.382
338.15 K, x1 = 0.5005 | 693.31 | –
338.15 K, x1 = 0.6005 | – | 0.359
338.15 K, x1 = 0.6066 | 692.86 | –
338.15 K, x1 = 0.6866 | 692.58 | –
338.15 K, x1 = 0.7973 | 692.06 | –
343.15 K, x1 = 0.1016 | – | 0.466
343.15 K, x1 = 0.1019 | 691.02 | –
343.15 K, x1 = 0.2002 | – | 0.445
343.15 K, x1 = 0.2041 | 690.46 | –
343.15 K, x1 = 0.3003 | – | 0.42
343.15 K, x1 = 0.3077 | 689.92 | –
343.15 K, x1 = 0.3999 | 689.38 | –
343.15 K, x1 = 0.4013 | – | 0.398
343.15 K, x1 = 0.4992 | – | 0.369
343.15 K, x1 = 0.5005 | 688.8 | –
343.15 K, x1 = 0.6066 | 688.18 | –
343.15 K, x1 = 0.6866 | 687.71 | –
343.15 K, x1 = 0.7973 | 686.92 | –
348.15 K, x1 = 0.1016 | – | 0.443
348.15 K, x1 = 0.1019 | 687.01 | –
348.15 K, x1 = 0.2002 | – | 0.424
348.15 K, x1 = 0.2041 | 686.34 | –
348.15 K, x1 = 0.3003 | – | 0.402
348.15 K, x1 = 0.3077 | 685.67 | –
348.15 K, x1 = 0.3999 | 685.01 | –
348.15 K, x1 = 0.4013 | – | 0.383
348.15 K, x1 = 0.5005 | 684.26 | –
348.15 K, x1 = 0.6066 | 683.43 | –
353.15 K, x1 = 0.1016 | – | 0.422
353.15 K, x1 = 0.1019 | 682.96 | –
353.15 K, x1 = 0.2002 | – | 0.406
353.15 K, x1 = 0.2041 | 682.18 | –
353.15 K, x1 = 0.3003 | – | 0.386
353.15 K, x1 = 0.3077 | 681.38 | –
353.15 K, x1 = 0.3999 | 680.59 | –
353.15 K, x1 = 0.4013 | – | 0.372
353.15 K, x1 = 0.5005 | 679.69 | –
353.15 K, x1 = 0.6066 | 678.65 | –
358.15 K, x1 = 0.1016 | – | 0.407
358.15 K, x1 = 0.1019 | 678.89 | –
358.15 K, x1 = 0.2002 | – | 0.388
358.15 K, x1 = 0.2041 | 678 | –
358.15 K, x1 = 0.3003 | – | 0.372
358.15 K, x1 = 0.3077 | 677.06 | –
358.15 K, x1 = 0.3999 | 676.14 | –
363.15 K, x1 = 0.1019 | 674.79 | –
363.15 K, x1 = 0.2041 | 673.78 | –
363.15 K, x1 = 0.3077 | 672.71 | –
363.15 K, x1 = 0.3999 | 671.66 | –
